Results as given in PubChem BioAssay AID179 (DTP/NCI, 2004).
The source made the active and inactive calls.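 Rule for the calls: active = compounds giving half or more protection of infected cells from virus-caused growth loss, again on retest; inactive = the rest.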

Test system: CEM cells HIV-1 protection, formazan growth assay
Assay: NCI AIDS Antiviral Assay
Conditions: for IC50: measured here: growth of uninfected CEM cells
How it was run: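 Five concentrations of each compound were applied to infected and uninfected human CEM cells. Protection from HIV-1 was judged from growth measured with a soluble formazan assay.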

| Compound | EC50 | IC50 | outcome |
| --- | --- | --- | --- |
| O=C(CCc1nc(=S)[nH][nH]1)Nc1cc(Cl)ccc1Cl | > 407 µM | > 407 µM |  |
| CCOC(=O)/C(=C/c1cccc(OC)c1)N(CC)CC | > 182 µM | > 182 µM |  |
| CCOC(=O)/C(=C1/Nc2ccccc2S1)c1ncnc2nc[nH]c12 |  |  | inactive |
| O=c1cc2c(=O)oc3cc(O)c(O)oc3c2c(O)c1O | > 324 µM | 13.8 µM |  |
| S=C1c2ccccc2NC(=NC2CCCC2)C2CSCN12 (stereo not given) | > 200 µM | 148 µM |  |
| O=C(NCCCCCCCN1CCCCCCC1)C(C1CCCCC1)C1CCCCC1 | > 200 µM | 10.7 µM |  |
| CCC(C)CC(C)CC(C)/C=C(\C)C1=C(C)CC(C)(O)O1 (stereo not given) |  |  | inactive |
| COC(=O)[C@H](COC(=O)/C=C/c1ccc(OC(C)=O)c(OC(C)=O)c1)NC(=O)/C=C/c1ccc(OC(C)=O)c(OC(C)=O)c1 | > 100 µM | 17.8 µM |  |
| CC(NC(=O)C(N)CC(=O)O)NC(=O)N1CCCC1 (stereo not given) | > 200 µM | > 200 µM |  |
| C=C1N(S(=O)(=O)c2ccc(C)cc2)C(=O)OCC12CCCC2 | > 200 µM | 44.7 µM |  |
| CCOC(=O)NC(=S)NN(C)C1=NCC(C)(C)S1 | > 200 µM | > 200 µM |  |
| CC(=O)Nc1ccc(S(=O)(=O)/N=C(/C2CCCC2)N2CCCC2)cc1 | > 200 µM | > 200 µM |  |
| CCCCOC(=O)NC(=O)c1cc2cc(Cl)cc(Cl)c2oc1=O | > 13.8 µM | > 13.8 µM |  |
| CN(C)c1ccc(/C=C2\CC(C)(C)c3ccccc3C2=O)cc1 | > 2 µM | 0.363 µM |  |
| COc1cc2c(c3oc(=O)ccc13)[C@@H](OC(=O)C13CCC(C)(C(=O)O1)C3(C)C)[C@@H](OC(=O)C13CCC(C)(C(=O)O1)C3(C)C)C(C)(C)O2 (stereo not given in full) | 0.324 µM | > 200 µM |  |
| CCCOC(=O)c1ccc(N)cc1 | > 200 µM | > 200 µM |  |
| COc1ccc(/C=C2\NC(=S)N(CN3CCCCC3)C2=O)cc1 | > 200 µM | 30.9 µM |  |
| COc1cc2c3c(c1)C(O)CC[N+]3(C)CCC2 (stereo not given) | > 200 µM | > 200 µM |  |
| NC(=O)[N+](=CC(=S)Nc1ccccc1Cl)C(N)=O | > 200 µM | > 200 µM |  |
| CCOP(=O)(OCC)c1ccc(=O)[nH]c1-c1cccs1 | > 200 µM | > 200 µM |  |
| CCC[CH2][Sn]([CH2]CCC)([O]C(=O)c1cc(OC)c(OC)cc1OC)[O][Sn]([CH2]CCC)([CH2]CCC)[O]C(=O)c1cc(OC)c(OC)cc1OC | > 11 µM | 0.302 µM |  |

| Compound | EC50 | IC50 | outcome |
| --- | --- | --- | --- |
| C[C@@H](c1ccccc1)N1C[C@@H](c2ccc3c(c2)OCO3)[C@@H]2C(=O)CCC[C@@H]21 | > 200 µM | 112 µM |  |
| CCOC(=O)NC(=S)NC(C)c1ccccc1 (stereo not given) | > 200 µM | 115 µM |  |
| C[n+]1c2ccccc2c(NC(CS)C(=O)O)c2ccccc21 (stereo not given) |  |  | inactive |
| CCOc1ccc(C(C)c2cc3c(cc2OC)OCO3)cc1 (stereo not given) | > 33.1 µM | 0.468 µM |  |
| Cc1c(NC(=O)CCCl)c(=O)oc2c(C)c3occc(=O)c3cc12 | > 145 µM | 1.48 µM |  |
| COC(=O)C(C([CH-][N+](=O)[O-])c1ccccc1)[P+](c1ccccc1)(c1ccccc1)c1ccccc1 (stereo not given) | > 200 µM | 10.7 µM |  |
| COC(=O)n1nnc2ncccc21 | > 200 µM | > 200 µM |  |
| COC(=O)C(Cc1nc2ccccc2nc1C)/C(=N\NC(N)=O)C(=O)Nc1cccc([N+](=O)[O-])c1 (stereo not given) | > 15.1 µM | > 15.1 µM |  |
| C=CCOCCCC(=O)C(=[N+]=[N-])C(=O)OC | > 251 µM | 57.5 µM |  |
| O=S(Nc1ccccc1)c1ccccc1Oc1ccccc1 (stereo not given) |  |  | inactive |
| CNc1ncnc2nc(C)c(C)nc12 | > 200 µM | > 200 µM |  |
| CCOC(=O)C(=O)Nc1ccccc1C(F)(F)F | > 363 µM | > 363 µM |  |
| O=C(OCc1ccccc1)N(CCCCN(CCCNC(=O)C(F)(F)F)C(=O)OCc1ccccc1)CCCNC(=O)C(F)(F)F |  |  | inactive |
| O=C1Nc2ccc(Cl)cc2C(=O)N2CCC[C@@H]12 | > 200 µM | > 200 µM |  |
| CC(C)(C)C1COP(=S)(c2ccccc2)OC1 (stereo not given) | > 69.2 µM | > 69.2 µM |  |
| O=[N+]([O-])C(=C(\Cl)NCCO)/C(Cl)=C(/Cl)Br | > 20 µM | 1 µM |  |
| O=C(Cc1ccc(Cl)cc1)NC(NC(=O)Cc1ccc(Cl)cc1)C(Cl)(Cl)Cl | > 200 µM | > 200 µM |  |
| CC(C)(CO)C(O)C(=O)NCCCO (stereo not given) | > 200 µM | > 200 µM |  |
| CC1=NC(C)(C)CC2CCC(O)C12 (stereo not given) | > 200 µM | > 200 µM |  |
| Cc1cc(S(=O)(=O)Nc2n[nH]c(-c3ccc(Cl)cn3)n2)c(S)cc1Cl | > 148 µM | 123 µM |  |
| CCCCN1[C@@H](C)C=C[C@@H](C)S1=O (stereo not given in full) |  |  | inactive |

| Compound | EC50 | IC50 | outcome |
| --- | --- | --- | --- |
| CC(C)(C)[Si](C)(C)OC1(CCc2ccccc2OS(=O)(=O)C(F)(F)F)CCCC=C1COCc1ccccc1 (stereo not given) | > 200 µM | 39.8 µM |  |
| Cc1ccc(S(=O)(=O)N2CCCSCCSCCCN(S(=O)(=O)c3ccc(C)cc3)CC2)cc1 | > 13.2 µM | > 13.2 µM |  |
| O=CC[C@@H]1c2ccccc2C=C[C@]12C=CC(=O)CC2 | > 74.1 µM | 53.7 µM |  |
| COc1ccc2c(c1)C(=O)C13CC(C(=O)N(C)C)C(OC(C)=O)(CCC21)C3 (stereo not given) | > 95.5 µM | > 95.5 µM |  |
| Cc1nc2ccccc2c(=O)n1-c1ccccc1Br | > 214 µM | > 214 µM |  |
| O=[N+]([O-])/C(Cl)=C(\NCCN/C(C(Cl)=C(Cl)Cl)=C(/Cl)[N+](=O)[O-])C(Cl)=C(Cl)Cl | > 200 µM | 61.7 µM |  |
| COc1c(O)c(O)cc2c1-c1ccc(OC)c(=O)cc1C(NC(C)=O)CC2 (stereo not given) | > 200 µM | 1.05 µM |  |
| O=C(O)COc1ccc(C(=O)/C(SS/C(C(=O)c2ccc(OCC(=O)O)c(Cl)c2Cl)=C2\C=C(c3ccc(F)cc3)SS2)=C2/C=C(c3ccc(F)cc3)SS2)c(Cl)c1Cl | > 37.2 µM | > 37.2 µM |  |
| CCOC(=O)C1Cc2ccc(OC)cc2C2=CC(=O)CCC21 (stereo not given) | > 166 µM | > 166 µM |  |
| Cc1c(N(Cc2ccccc2)Cc2ccccc2)nc(S(C)(=O)=O)nc1S(C)(=O)=O |  |  | inactive |
| O=C(NCCCCCCNC(=O)n1cc(F)c(=O)[nH]c1=O)NCCCOCCOCCOCCOCCOCCOCCOCCOCCOCCOCCOCCOCCOCCOCCOCCOCCOCCOCCOCCOCCOCCCNC(=O)C(O)C(O)C(O)C(O)CO (stereo not given) |  |  | inactive |
| CC(=O)Nc1ccc(S(=O)(=O)Nc2ccc(S(=O)(=O)c3ccc(-n4sc5ccccc5c4=O)cc3)cc2)cc1 | 16.6 µM | 102 µM |  |
| Cc1coc2c1[C@@H](O)[C@]1(C)[C@@H](C)CC[C@H](O)[C@]1(O)C2 | > 200 µM | > 200 µM |  |
| CCC1=CC2CN3CCc4c([nH]c5ccccc45)[C@@](C(=O)OC)(C2)[C@@H]13 |  |  | inactive |
| C/C(=N\Nc1ccc([N+](=O)[O-])cc1)C(=O)N(C)Nc1ccccc1 |  |  | inactive |
| COC(=O)Cc1c2c3n(c(=O)c1-n1[nH]c(=O)n(-c4ccc(Cl)cc4)c1=O)CCN3CCC2 | > 200 µM | > 200 µM |  |
| c1cc2nnc1SCCCSc1ccc(nn1)SCCCS2 | > 126 µM | 115 µM |  |
| Cn1c2ccccc2c(=Nc2ccc(S(N)(=O)=O)cc2)c2ccccc21 |  |  | inactive |
| Cc1ccc(NNc2cc(=O)[nH]c(=O)[nH]2)cc1Cl | > 200 µM | 4.68 µM |  |
| CC(=O)Oc1ccn2nc(C)c(Br)c2c1 | > 200 µM | 93.3 µM |  |
| CNC(=S)c1nnsc1N | > 200 µM | 0.302 µM |  |
